Measurements published in ChEMBL document CHEMBL2424579, “Quinazolin-4-one derivatives as selective histone deacetylase-6 inhibitors for the treatment of Alzheimer's disease” (J Med Chem, 2013).
The source made the active and inactive calls. The rule behind the calls is not given here.

Legend:
[1] = target: T1, Amyloid-beta precursor protein (Homo sapiens, UniProt P05067); assay: Inhibition of amyloid beta aggregation (unknown origin) after 4 hrs by thioflavin S assay in presence of Zn2+
[2] = target: T1, Amyloid-beta precursor protein; assay: Inhibition of amyloid beta aggregation (unknown origin) after 4 hrs by thioflavin S assay in absence of Zn2+
PC-12 [3] = assay: Induction of neurite outgrowth in rat PC12 cells after 5 days; format: functional, cell-based; settings: PC-12, 120 h
PC-12 [4] = assay: Increase of synaptic activity in rat PC12 cells after 5 days by fluorescence assay; format: functional, cell-based; settings: PC-12, 120 h
Histone deacetylase 1 = Histone deacetylase 1 (Homo sapiens, UniProt Q13547); assay: Inhibition of human recombinant HDAC1 expressed in baculovirus/sf9 cells using RHKKAc as substrate
SH-SY5Y [5] = assay: Increase of synaptic activity in human SH-SY5Y cells after 5 days by fluorescence assay; format: functional, cell-based; settings: 120 h
Histone deacetylase 11 = target: T2, Histone deacetylase 11 (Homo sapiens, UniProt Q96DB2); assay: Inhibition of human recombinant HDAC11 expressed in baculovirus/sf9 cells using RHKKAc as substrate
T2 sequence (Q96DB2 whole entry): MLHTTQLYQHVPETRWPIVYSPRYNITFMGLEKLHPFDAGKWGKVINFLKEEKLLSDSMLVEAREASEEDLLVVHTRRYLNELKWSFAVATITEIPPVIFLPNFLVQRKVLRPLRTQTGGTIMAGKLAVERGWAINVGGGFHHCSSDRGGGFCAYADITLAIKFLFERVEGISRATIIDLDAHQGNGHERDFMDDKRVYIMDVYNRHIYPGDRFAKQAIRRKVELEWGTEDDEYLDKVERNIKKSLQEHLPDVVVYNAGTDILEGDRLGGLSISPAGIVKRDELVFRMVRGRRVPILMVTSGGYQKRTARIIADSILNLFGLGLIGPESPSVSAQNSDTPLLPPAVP

[6] = target: T3, Protein deacetylase HDAC6 (Homo sapiens, UniProt Q9UBN7); assay: Inhibition of human recombinant HDAC6 expressed in baculovirus/sf9 cells using RHKKAc as substrate
T3 sequence (Q9UBN7 whole entry): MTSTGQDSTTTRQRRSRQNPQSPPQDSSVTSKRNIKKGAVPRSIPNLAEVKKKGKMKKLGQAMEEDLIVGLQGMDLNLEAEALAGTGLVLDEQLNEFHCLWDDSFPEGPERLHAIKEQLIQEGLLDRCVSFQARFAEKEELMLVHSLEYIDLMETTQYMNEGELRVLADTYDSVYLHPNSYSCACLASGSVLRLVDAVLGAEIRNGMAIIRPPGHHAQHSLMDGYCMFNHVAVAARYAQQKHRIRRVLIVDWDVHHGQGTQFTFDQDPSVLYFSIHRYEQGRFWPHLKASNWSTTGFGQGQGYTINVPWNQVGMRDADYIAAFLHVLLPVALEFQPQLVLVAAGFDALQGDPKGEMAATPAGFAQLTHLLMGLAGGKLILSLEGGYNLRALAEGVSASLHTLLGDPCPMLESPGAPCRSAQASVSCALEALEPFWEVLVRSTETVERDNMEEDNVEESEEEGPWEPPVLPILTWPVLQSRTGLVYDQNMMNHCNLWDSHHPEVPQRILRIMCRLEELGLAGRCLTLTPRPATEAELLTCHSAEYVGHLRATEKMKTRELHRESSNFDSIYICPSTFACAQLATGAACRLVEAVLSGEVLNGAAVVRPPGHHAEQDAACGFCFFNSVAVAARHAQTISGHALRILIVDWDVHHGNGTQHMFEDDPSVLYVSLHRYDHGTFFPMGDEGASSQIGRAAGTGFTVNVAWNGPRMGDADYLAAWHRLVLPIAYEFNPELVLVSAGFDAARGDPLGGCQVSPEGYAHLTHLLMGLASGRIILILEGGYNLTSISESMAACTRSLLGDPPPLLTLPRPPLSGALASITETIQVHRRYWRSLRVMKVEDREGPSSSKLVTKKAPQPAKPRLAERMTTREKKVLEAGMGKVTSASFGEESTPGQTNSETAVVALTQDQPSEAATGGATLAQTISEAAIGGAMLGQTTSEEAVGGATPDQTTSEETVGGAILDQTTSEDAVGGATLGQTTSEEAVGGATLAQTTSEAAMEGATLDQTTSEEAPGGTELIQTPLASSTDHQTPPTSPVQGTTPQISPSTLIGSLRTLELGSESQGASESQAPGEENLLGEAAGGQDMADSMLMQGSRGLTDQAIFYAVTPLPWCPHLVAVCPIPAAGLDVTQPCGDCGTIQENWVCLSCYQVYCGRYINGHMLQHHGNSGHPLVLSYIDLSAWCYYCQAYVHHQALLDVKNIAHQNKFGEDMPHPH

Histone deacetylase 8 = target: T4, Histone deacetylase 8 (Homo sapiens, UniProt Q9BY41); assay: Inhibition of human recombinant HDAC8 expressed in baculovirus/sf9 cells using RHKAcKAc as substrate
T4 sequence (Q9BY41 whole entry): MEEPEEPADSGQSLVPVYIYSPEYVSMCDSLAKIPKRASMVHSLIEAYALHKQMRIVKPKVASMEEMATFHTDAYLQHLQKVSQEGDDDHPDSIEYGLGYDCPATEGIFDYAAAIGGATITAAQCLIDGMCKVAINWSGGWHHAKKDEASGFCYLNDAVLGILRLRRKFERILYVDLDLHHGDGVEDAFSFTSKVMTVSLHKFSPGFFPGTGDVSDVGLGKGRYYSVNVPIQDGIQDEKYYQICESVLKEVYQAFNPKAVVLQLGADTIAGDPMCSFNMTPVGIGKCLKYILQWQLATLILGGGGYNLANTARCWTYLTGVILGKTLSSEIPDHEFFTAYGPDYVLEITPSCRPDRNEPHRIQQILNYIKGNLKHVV

PC-12 [7] = assay: Cytotoxicity against rat PC12 cells at 25 uM; format: cell-based; settings: pc-12, 25 µM
PC-12 [8] = assay: Induction of neurite outgrowth in rat PC12 cells at 10 uM after 5 days; format: functional, cell-based
Vero = assay: Cytotoxicity against african green monkey Vero cells at 25 uM; format: cell-based; settings: chlorocebus sabaeus
[9] = Cytotoxicity against human SH-SY5Y cells at 25 uM; format: cell-based
SH-SY5Y [10] = assay: Induction of neurite outgrowth in human SH-SY5Y cells at 10 uM after 5 days; format: functional, cell-based
Histone deacetylase 2 = Histone deacetylase 2 (Homo sapiens, UniProt Q92769); assay: Inhibition of human recombinant HDAC2 expressed in baculovirus/sf9 cells using RHKKAc as substrate
SH-SY5Y [11] = assay: Induction of neurite outgrowth in human SH-SY5Y cells after 5 days; format: functional, cell-based; settings: 120 h
Homo sapiens [12] = species: Homo sapiens; assay: Selectivity index, ratio of IC50 for human recombinant HDAC8 to IC50 for human recombinant HDAC6
Homo sapiens [13] = species: Homo sapiens; assay: Selectivity index, ratio of IC50 for human recombinant HDAC1 to IC50 for human recombinant HDAC6
PC-12 [14] = assay: Induction iof GAP-43 protein expression in rat PC12 cells after 48 hrs by Western blotting analysis; format: functional, cell-based
[15] = target: Poly [ADP-ribose] polymerase 1 (Homo sapiens) (UniProt P09874); assay: Inhibition of PARP1 (unknown origin) up to 25 uM
Poly [ADP-ribose] polymerase 1 (Homo sapiens), sequence (P09874 whole entry): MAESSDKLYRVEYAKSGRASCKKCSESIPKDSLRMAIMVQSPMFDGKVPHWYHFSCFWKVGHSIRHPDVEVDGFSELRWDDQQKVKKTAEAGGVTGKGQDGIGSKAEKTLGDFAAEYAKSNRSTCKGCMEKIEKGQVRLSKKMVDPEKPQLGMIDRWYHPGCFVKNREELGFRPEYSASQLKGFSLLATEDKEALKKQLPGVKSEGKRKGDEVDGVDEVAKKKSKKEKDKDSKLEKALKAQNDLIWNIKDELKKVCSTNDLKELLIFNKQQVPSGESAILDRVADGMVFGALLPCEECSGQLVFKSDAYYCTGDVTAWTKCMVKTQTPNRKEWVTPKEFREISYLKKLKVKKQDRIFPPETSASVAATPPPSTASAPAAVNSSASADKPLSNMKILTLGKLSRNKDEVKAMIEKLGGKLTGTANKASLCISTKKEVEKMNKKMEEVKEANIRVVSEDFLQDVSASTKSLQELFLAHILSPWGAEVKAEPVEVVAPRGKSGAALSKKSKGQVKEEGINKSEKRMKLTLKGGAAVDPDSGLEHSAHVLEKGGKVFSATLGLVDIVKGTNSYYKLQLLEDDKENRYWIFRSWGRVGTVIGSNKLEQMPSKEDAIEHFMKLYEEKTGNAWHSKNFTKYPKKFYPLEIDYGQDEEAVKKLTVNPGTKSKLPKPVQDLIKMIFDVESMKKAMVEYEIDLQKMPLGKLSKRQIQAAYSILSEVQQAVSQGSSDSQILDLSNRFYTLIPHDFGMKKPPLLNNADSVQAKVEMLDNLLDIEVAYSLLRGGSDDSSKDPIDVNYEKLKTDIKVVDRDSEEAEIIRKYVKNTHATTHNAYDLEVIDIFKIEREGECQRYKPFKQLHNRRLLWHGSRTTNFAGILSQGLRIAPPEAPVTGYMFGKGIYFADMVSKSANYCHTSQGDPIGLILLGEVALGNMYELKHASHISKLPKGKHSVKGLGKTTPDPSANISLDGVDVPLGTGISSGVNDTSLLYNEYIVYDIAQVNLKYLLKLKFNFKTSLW

T1 sequence (P05067 whole entry): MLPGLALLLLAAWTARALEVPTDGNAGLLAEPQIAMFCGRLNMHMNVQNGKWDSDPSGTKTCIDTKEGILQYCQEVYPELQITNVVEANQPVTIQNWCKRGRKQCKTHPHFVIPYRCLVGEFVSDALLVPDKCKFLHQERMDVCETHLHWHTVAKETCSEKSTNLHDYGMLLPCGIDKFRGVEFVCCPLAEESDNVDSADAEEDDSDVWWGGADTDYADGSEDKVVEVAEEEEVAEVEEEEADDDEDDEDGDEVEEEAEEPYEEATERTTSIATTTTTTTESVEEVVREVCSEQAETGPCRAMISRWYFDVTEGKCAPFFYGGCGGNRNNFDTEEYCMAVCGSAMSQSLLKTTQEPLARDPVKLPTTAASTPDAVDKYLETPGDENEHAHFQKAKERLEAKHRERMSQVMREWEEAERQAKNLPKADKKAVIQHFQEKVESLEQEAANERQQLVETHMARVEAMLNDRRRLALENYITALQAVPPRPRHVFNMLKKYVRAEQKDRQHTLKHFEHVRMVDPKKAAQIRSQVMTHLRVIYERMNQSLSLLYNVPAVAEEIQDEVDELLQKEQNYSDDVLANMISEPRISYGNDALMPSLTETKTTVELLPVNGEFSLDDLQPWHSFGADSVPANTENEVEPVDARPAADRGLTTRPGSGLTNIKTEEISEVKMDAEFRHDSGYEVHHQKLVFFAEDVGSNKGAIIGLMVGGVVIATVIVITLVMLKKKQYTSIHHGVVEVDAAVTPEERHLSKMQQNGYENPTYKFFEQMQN
Histone deacetylase 1, sequence (Q13547 whole entry): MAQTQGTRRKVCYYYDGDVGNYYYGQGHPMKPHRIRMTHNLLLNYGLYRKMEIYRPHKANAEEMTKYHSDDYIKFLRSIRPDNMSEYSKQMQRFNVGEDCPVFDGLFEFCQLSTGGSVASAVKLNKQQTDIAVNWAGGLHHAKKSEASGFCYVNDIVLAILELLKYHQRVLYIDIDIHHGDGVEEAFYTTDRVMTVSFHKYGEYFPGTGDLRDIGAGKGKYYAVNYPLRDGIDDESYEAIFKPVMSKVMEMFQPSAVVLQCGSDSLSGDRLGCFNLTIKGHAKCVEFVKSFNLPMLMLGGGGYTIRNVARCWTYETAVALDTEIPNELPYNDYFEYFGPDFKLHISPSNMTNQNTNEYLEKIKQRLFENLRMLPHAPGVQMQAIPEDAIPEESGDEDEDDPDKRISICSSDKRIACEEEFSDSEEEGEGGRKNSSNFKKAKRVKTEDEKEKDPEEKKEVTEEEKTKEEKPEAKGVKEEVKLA
Histone deacetylase 2, sequence (Q92769 whole entry): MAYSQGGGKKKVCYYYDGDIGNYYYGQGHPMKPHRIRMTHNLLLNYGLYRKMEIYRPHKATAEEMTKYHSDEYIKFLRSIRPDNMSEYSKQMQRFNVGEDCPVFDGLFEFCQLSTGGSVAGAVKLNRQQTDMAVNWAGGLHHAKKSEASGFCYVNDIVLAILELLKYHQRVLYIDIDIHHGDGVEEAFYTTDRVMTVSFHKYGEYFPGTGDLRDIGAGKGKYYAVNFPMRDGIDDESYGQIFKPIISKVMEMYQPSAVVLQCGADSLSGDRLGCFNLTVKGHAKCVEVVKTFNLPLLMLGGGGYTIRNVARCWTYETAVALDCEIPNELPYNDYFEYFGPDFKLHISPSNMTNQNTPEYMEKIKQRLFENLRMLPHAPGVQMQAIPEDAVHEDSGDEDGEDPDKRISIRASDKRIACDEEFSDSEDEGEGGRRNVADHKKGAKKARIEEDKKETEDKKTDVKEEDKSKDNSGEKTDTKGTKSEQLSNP

| IC50 [1] | SMILES | IC50 [2] | EC50 (PC-12 [3]) | EC50 (PC-12 [4]) | IC50 (Histone deacetylase 1) | EC50 (SH-SY5Y [5]) | IC50 (Histone deacetylase 11) | IC50 [6] | IC50 (Histone deacetylase 8) | Activity (PC-12 [7]) | Activity (PC-12 [8]) | Activity (Vero) | Activity [9] | Activity (SH-SY5Y [10]) | IC50 (Histone deacetylase 2) | EC50 (SH-SY5Y [11]) | Ratio IC50 (Homo sapiens [12]) | Ratio IC50 (Homo sapiens [13]) | Activity (PC-12 [14]) | inhibition [15] |
| --- | --- | --- | --- | --- | --- | --- | --- | --- | --- | --- | --- | --- | --- | --- | --- | --- | --- | --- | --- | --- |
| 7.7 µM | O=C(O)CN(CCN(CC(=O)O)CC(=O)O)CC(=O)O [EDETIC ACID] | 28.4 µM |  |  |  |  |  |  |  |  |  |  |  |  |  |  |  |  |  |  |
|  | CCc1nc2ccc(Cc3ccc(C(=O)NO)cc3)cc2c(=O)n1CCc1ccccc1 |  | 9.4 µM | 2.9 µM | 1.05 µM | 4.1 µM | 0.656 µM | 0.011 µM | 0.099 µM | Non-toxic | Active | Non-toxic | Non-toxic | Active | 3.61 µM | 18.4 µM |  |  |  |  |
|  | O=C(/C=C/c1ccc2c(=O)n(CCc3ccccc3)c(C3CC3)nc2c1)NO |  | 10.5 µM |  | 0.433 µM | > 25 µM |  | 0.041 µM |  | Non-toxic | Active | Non-toxic | Non-toxic | Active |  | > 25 µM |  |  |  |  |
|  | O=C(/C=C/c1ccc2c(=O)n(CCc3ccccc3)cnc2c1)NO | > 50 µM | > 25 µM | 14.5 µM | 0.495 µM | 4.9 µM | 0.73 µM | 0.035 µM | 0.6 µM | Non-toxic | Active | Non-toxic | Non-toxic | Active | 1.22 µM | 15 µM |  |  |  |  |
|  | CCc1nc2cc(/C=C/C(=O)NO)ccc2c(=O)n1CCc1ccc(OC)cc1 |  | 7.2 µM | 20.6 µM | 1.81 µM | 20.6 µM | 3.91 µM | 0.041 µM | 0.594 µM | Non-toxic |  | Non-toxic | Non-toxic |  | 4.78 µM | > 25 µM |  |  |  |  |
|  | Cc1nc2cc(/C=C/C(=O)NO)ccc2c(=O)n1CCc1c[nH]c2ccccc12 | > 50 µM |  |  | 0.758 µM |  | 1.21 µM | 0.015 µM | 1.59 µM | Non-toxic |  | Non-toxic | Non-toxic |  | 2.21 µM |  | 106 | 51 |  |  |
| 43.7 µM | O=C(O)c1cccnc1 [NIACIN] | 13.1 µM |  |  |  |  |  |  |  |  |  |  |  |  |  |  |  |  |  |  |
|  | CCc1nc2cc(Cl)c(/C=C/C(=O)NO)cc2c(=O)n1CCc1ccccc1 |  |  |  | > 10 µM |  | > 30 µM | 0.747 µM | 1.88 µM | Non-toxic |  | Non-toxic | Non-toxic |  | > 12 µM |  | 3 | > 13 |  |  |
|  | CC(C)c1nc2cc(/C=C/C(=O)NO)ccc2c(=O)n1CCc1ccccc1 |  | 11.5 µM | 5.3 µM | 0.389 µM | 6.7 µM |  | 0.013 µM |  | Non-toxic | Active | Non-toxic | Non-toxic | Active |  | 15 µM |  |  |  |  |
|  | CCc1nc2cc(/C=C/C(=O)NO)c(F)cc2c(=O)n1CCc1ccccc1 |  |  |  | 3 µM |  | 3.74 µM | 0.014 µM | 1.4 µM | Non-toxic |  | Non-toxic | Non-toxic |  | > 10 µM |  | 100 | 214 |  |  |
|  | CCc1nc2cc(/C=C/C(=O)NO)ccc2c(=O)n1CCc1ccccc1 | > 50 µM | 5.3 µM | 7.2 µM | 1.19 µM | 0.9 µM | 2.95 µM | 0.011 µM | 1.18 µM | Non-toxic | Active | Non-toxic | Non-toxic | Active | 4.81 µM | 11 µM |  |  | Dose-dependent effect | inactive |
|  | CCc1nc2cc(/C=C/C(=O)NO)ccc2c(=O)n1CCc1ccc(F)cc1 |  | 18.4 µM | 13.9 µM | 2.11 µM | 22.2 µM | 4.25 µM | 0.043 µM | 0.891 µM | Non-toxic | Active | Non-toxic | Non-toxic | Active | 6.88 µM | > 25 µM |  |  |  |  |
|  | CCc1nc2cc(/C=C/C(=O)NO)ccc2c(=O)n1CCCc1ccccc1 |  | 6.6 µM | 7 µM | 3.2 µM | 10 µM | 5.59 µM | 0.033 µM | 1.33 µM | Non-toxic | Active | Non-toxic | Non-toxic | Active | > 12 µM | 11.7 µM |  |  | Dose-dependent effect | inactive |
|  | Cc1nc2cc(/C=C/C(=O)NO)ccc2c(=O)n1Cc1ccccc1 | > 50 µM | 20.9 µM | 8.2 µM | 1.45 µM | 8.2 µM | 2.44 µM | 0.024 µM | 1.27 µM | Non-toxic | Active | Non-toxic | Non-toxic | Active | 4 µM | > 25 µM |  |  |  |  |
